From patent publication US20260250290A1 (BRISTOL-MYERS SQUIBB COMPANY, priority 2023, published 2026)

What was measured:
[1] = biological target: T1, SGK1 (Homo sapiens, UniProt O00141); experiment: SGK1 inhibition Assay B (Echo mass spectrometry of phosphorylated peptide product); format: biochemical; conditions: 60 min at room temperature
T1 sequence (O00141 1-431): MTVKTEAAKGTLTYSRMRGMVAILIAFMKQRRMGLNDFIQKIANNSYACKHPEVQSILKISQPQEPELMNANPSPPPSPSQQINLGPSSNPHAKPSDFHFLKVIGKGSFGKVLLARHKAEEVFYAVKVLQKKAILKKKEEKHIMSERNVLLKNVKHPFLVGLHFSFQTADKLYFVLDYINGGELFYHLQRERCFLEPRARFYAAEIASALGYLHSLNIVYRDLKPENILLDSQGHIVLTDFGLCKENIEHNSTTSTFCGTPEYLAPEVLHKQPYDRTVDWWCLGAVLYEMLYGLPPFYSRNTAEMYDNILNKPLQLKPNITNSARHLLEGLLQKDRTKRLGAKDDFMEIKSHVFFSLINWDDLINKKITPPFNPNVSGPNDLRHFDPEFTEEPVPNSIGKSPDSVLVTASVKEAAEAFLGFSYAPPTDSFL

[2] = biological target: T2, full length SGK1 (Homo sapiens, UniProt O00141); experiment: SGK1 inhibition Assay A (Caliper LabChip electrophoretic separation of fluorescent peptide substrate and phosphorylated product); format: biochemical; conditions: Assay A; 20 μM ATP, 40 min incubation; read-out: SGK1 IC50
T2 construct: 125 μM full length SGK1 (Life Technologies Part #PR7358A); purchased Life Technologies PR7358A
T2 sequence (O00141 1-431): T1 sequence (O00141 1-431)

| IC50 [1] [nM] | IC50 [2] [nM] | Structure (SMILES) |
| --- | --- | --- |
| 3 | 6 | Nc1ncnn2c(-c3ccnc(C(F)F)c3)cc(N3CCC[C@@H](NC(=O)c4ccc(C(F)F)s4)C3)c12 [Example 482, (R)-N-(1-(4-amino-7-(2-(difluoromethyl)pyridin-4-yl)pyrrolo[2,1-f][1,2,4]triazin-5-yl)piperidin-3-yl)-5-(difluoromethyl)thiophene-2-carboxamide] |
| 45 |  | CN1CCN(c2cccc(C(=O)N[C@@H]3CCCN(c4cc(-c5ccc(F)c(F)c5)n5ncnc(N)c45)C3)n2)CC1 [Example 811, (R)-N-(1-(4-amino-7-(3,4-difluorophenyl)pyrrolo[2,1-f][1,2,4]triazin-5-yl)piperidin-3-yl)-6-(4-methylpiperazin-1-yl)picolinamide] |
| 0.8 |  | CCC1=C(c2cc(N3CCC[C@@H](NC(=O)c4sc(C)nc4O[C@H]4CC[C@@H](N(C)C)CC4)C3)c3c(N)ncnn23)COC1=O [Example 1018, N—((R)-1-(4-amino-7-(4-ethyl-5-oxo-2,5-dihydrofuran-3-yl)pyrrolo[2,1-f][1,2,4]triazin-5-yl)piperidin-3-yl)-4-(((1S,4S)-4-(dimethylamino)cyclohexyl)oxy)-2-methylthiazole-5-carboxamide] |
